What is called IC50 is the concentration at which inhibition is half-maximal. A lower IC50 goes with greater potency in that assay. The term EC50 denotes the concentration that produces a half-maximal response.

Read-outs that look alike come from different tables or passages of the source.

Experiment [1] addresses HDAC6 (Homo sapiens (Human), UniProt Q9UBN7).
The subject of experiment [2] is KARN cells (Jurkat 2C4). The experiment in a line: cells. The following applies: Homo sapiens.
Experimental: KARN Assay Cell Maintenance
KARN cells (Jurkat 2C4) were licensed from the laboratory of Dr. John Karn, Case Western Reserve University, School of Medicine. […] An atmosphere of 5% CO2 and 90% humidity was used for all culture work.
These flasks were returned to the incubator.
The cells were gently resuspended in assay media (30 ml) and pelleted again. […] The cells were counted using the ViCell (Beckman Coulter) and diluted as necessary. […] The plates were covered and returned to the incubator prior to compound addition.
The reference compounds, DMSO and SAHA were then added to the compound plate. […] The final high concentration for SAHA and the test compounds in the assays was 40 μM. The final DMSO concentration in all wells was 0.4%. The minimal induction reference compound used was DMSO and the maximal induction reference compound used was SAHA (2 μM final concentration in the assay).
Day 3: The luciferase detection reagent was prepared by transferring the contents of one bottle of Steady-Glo buffer to one bottle of Steady-Glo aubstrate (Steady-Glo Luciferase Assay System, Promega, catalog number E2520), followed by gently mixing until the substrate was thoroughly dissolved and the solution was equilibrated to room temperature. […] The Steady-Glo Reagent was added to the plates (30 μl/well), which were then covered with a black lid and incubated for 10 minutes at room temperature. The plates were then read for luminescence on an Envision (Perkin Elmer) using the ultrasensitive mode (US LUM), 0.1 counts per second and 384-well aperture. Luminescence counts in the DMSO reference wells were considered as 0% induction, while those in the 2 μM SAHA reference wells were considered as 100% induction. Dose response curves were plotted as test compound concentration (X-axis) vs. percent activation (Y-axis) using a 4-parameter fit based on the Levenberg-Marquardt algorithm.
Where [3] appears, read: read-out: Karn EC50 nM 0.1% NHS, 0.1% normal human serum, luciferase induction, 2 μM SAHA = 100%.
Setting [4] is: read-out: Karn EC50 nM 5% NHS, 5% normal human serum, luciferase induction, 2 μM SAHA = 100%.

Chain of HDAC6 (Q9UBN7 whole entry): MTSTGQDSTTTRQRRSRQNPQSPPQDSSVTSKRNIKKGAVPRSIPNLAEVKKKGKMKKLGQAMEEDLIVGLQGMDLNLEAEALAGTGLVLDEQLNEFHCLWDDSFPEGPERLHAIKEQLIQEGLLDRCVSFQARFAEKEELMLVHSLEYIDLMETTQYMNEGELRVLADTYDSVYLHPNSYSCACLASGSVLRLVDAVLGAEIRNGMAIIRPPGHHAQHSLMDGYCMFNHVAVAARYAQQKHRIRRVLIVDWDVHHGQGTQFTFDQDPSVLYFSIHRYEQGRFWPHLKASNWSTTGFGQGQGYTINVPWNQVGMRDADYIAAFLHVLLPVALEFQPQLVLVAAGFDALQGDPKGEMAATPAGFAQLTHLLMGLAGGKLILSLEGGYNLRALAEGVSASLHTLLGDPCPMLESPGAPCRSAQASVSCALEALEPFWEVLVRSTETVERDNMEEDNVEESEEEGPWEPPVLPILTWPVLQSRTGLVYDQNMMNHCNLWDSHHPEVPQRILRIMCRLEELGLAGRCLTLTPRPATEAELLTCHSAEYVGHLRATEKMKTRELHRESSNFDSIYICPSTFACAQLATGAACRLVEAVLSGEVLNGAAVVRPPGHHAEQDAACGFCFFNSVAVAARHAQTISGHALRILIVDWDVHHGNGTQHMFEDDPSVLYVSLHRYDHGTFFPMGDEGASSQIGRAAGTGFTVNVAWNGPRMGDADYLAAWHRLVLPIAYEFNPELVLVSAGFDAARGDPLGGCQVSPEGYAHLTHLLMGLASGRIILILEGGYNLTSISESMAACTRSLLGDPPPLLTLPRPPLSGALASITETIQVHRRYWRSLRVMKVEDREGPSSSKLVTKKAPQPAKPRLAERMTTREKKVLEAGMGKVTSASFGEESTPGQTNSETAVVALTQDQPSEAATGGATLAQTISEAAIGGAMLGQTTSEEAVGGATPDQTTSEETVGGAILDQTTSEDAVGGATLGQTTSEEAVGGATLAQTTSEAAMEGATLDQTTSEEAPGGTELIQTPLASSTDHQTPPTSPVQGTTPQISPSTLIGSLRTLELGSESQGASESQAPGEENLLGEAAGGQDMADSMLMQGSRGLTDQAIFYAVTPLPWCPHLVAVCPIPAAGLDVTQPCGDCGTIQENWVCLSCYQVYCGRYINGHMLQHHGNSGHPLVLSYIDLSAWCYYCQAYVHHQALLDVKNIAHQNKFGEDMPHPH

With `COc1ncccc1-c1cnc([C@H](CCCCCC(=O)c2ncco2)NC(=O)C2CN(C)C2)o1` (stereo in doubt) [Example 104, N-(1-(5-(2-methoxypyridin-3-yl)oxazol-2-yl)-7-(oxazol-2-yl)-7-oxoheptyl)-1-methylazetidine-3-carboxamide], in experiment [1], the IC50 was more than 900 nM. Moreover, the figures for the EC50 in experiment [2] (setting [3]) and in experiment [2] (setting [4]) were 40 nM and 44 nM, respectively.
In the same order, the values of `O=C(CCCCC[C@H](NC(=O)c1cncs1)c1nc(-c2ccc(F)cc2)c[nH]1)c1ncco1` [Example 2, (S)-N-(1-(4-(4-fluorophenyl)-1H-imidazol-2-yl)-7-(oxazol-2-yl)-7-oxoheptyl)thiazole-5-carboxamide] are 45000 nM, 44 nM and 97 nM.
As to `CN1CCC(C(=O)N[C@@H](CCCCCC(=O)c2ncco2)c2nc(-c3ccc(F)cc3)c[nH]2)CC1` [Example 3, (S)-N-(1-(4-(4-fluorophenyl)-1H-imidazol-2-yl)-7-(oxazol-2-yl)-7-oxoheptyl)-1-methylpiperidine-4-carboxamide], in experiment [1], half-maximal inhibition (IC50) required 45000 nM. For the same molecule, the results for the concentration giving a half-maximal response (EC50) in experiment [2] (setting [3]) and in experiment [2] (setting [4]) were 18 nM and 26 nM, respectively.
In the same order, the values of `O=C(CCCCC[C@H](NC(=O)[C@H]1CC12CCOCC2)c1nc(-c2ccc(F)cc2)c[nH]1)c1ncco1` [Example 5, N-((S)-1-(4-(4-fluorophenyl)-1H-imidazol-2-yl)-7-(oxazol-2-yl)-7-oxoheptyl)-6-oxaspiro[2.5]octane-1-carboxamide] are 45000 nM, 63 nM and 130 nM.
In the same order, the values of `O=C(N[C@@H](CCCCCC(=O)c1nccs1)c1nc(-c2ccc(F)cc2)c[nH]1)c1cncs1` [Example 7, (S)-N-(1-(4-(4-fluorophenyl)-1H-imidazol-2-yl)-7-oxo-7-(thiazol-2-yl)heptyl)thiazole-5-carboxamide] are 45000 nM, 23 nM and 8400 nM.
`Cc1coc(C(=O)CCCCC[C@H](NC(=O)C2CCN(C)CC2)c2nc(-c3ccc(F)cc3)c[nH]2)n1` [Example 8, (S)-N-(1-(4-(4-fluorophenyl)-1H-imidazol-2-yl)-7-(4-methyloxazol-2-yl)-7-oxoheptyl)-1-methylpiperidine-4-carboxamide] gave an IC50 in experiment [1] of 15000 nM.
In experiment [1], `COc1nc(C)ccc1-c1c[nH]c([C@@H](N)CCCCCC(=O)c2ncco2)n1` [Example 11] gave an IC50 of 45000 nM. Moreover, the EC50 in experiment [2] (setting [3]) is 620 nM; in experiment [2] (setting [4]), 670 nM.
In the same order, the values of `COc1cc2nc(C)ccc2cc1-c1c[nH]c([C@@H](N)CCCCCC(=O)c2ncco2)n1` [Example 12, (S)-7-amino-7-(5-(7-methoxy-2-methylquinolin-6-yl)-1H-imidazol-2-yl)-1-(oxazol-2-yl)heptan-1-one] are 8300 nM, 66 nM and 80 nM.
In the same order, the values of `COc1nc2cnccc2cc1-c1c[nH]c([C@@H](N)CCCCCC(=O)c2ncco2)n1` [Example 13] are 45000 nM, 94 nM and 140 nM.
In experiment [1], `CN(C)c1ccc2cc(-c3cnc([C@@H](N)CCCCCC(=O)c4ncco4)[nH]3)ccc2n1` [Example 18] registered a concentration for half-maximal inhibition (IC50) of more than 1500 nM. The EC50 in experiment [2] (setting [3]) came out at 93 nM; in experiment [2] (setting [4]) it was 130 nM.
Taken in the same sequence, the figures for `N[C@@H](CCCCCC(=O)c1ncco1)c1ncc(-c2ccc(-c3cnccn3)cc2)[nH]1` [Example 20] were 45000 nM, 450 nM and 340 nM.
Taken in the same sequence, the figures for `Cn1c(=O)ccc2cc(-c3c[nH]c([C@@H](N)CCCCCC(=O)c4ccon4)n3)ccc21` [Example 32, (S)-6-(2-(1-amino-7-(isoxazol-3-yl)-7-oxoheptyl)-1H-imidazol-4-yl)-1-methylquinolin-2(1H)-one] were 15000 nM, 26 nM and 35 nM.
In the same order, the values of `COc1cc2c(ccc(=O)n2C)cc1-c1cnc([C@@H](N)CCCCCC(=O)c2ccon2)[nH]1` [Example 35, (S)-6-(2-(1-amino-7-(isoxazol-3-yl)-7-oxoheptyl)-1H-imidazol-5-yl)-7-methoxy-1-methylquinolin-2(1H)-one] are 15000 nM, 72 nM and 50 nM.
For the molecule `Cc1ccc2cc(-c3c[nH]c([C@H](CCCCCC(=O)c4ccon4)NC(=O)C4CN(C)C4)n3)ccc2n1` [Example 43], 1800 nM corresponded to half-maximal inhibition in experiment [1] (IC50). Besides, the EC50 in experiment [2] (setting [3]) came out at 8.5 nM; in experiment [2] (setting [4]) it was 14 nM.
In the same order, the values of `CN(C)CC(=O)N[C@@H](CCCCCC(=O)c1ccon1)c1nc(-c2ccccc2F)c[nH]1` [Example 47] are 9100 nM, 3.7 nM and 10 nM.
As to `Cc1cc(C(=O)CCCCC[C@H](NC(=O)C2CN(C)C2)c2nc(-c3ccccc3F)c[nH]2)no1` [Example 59], in experiment [1], the IC50 worked out at 45000 nM.
In turn, `CC(C(=O)N[C@@H](CCCCCC(=O)c1ccon1)c1ncc(-c2ccccc2F)[nH]1)N(C)C` (some centres unmarked) [Example 61] displayed an IC50 in experiment [1] of more than 900 nM. The EC50 in experiment [2] (setting [3]) was 3.6 nM; in experiment [2] (setting [4]) it was 5.8 nM.
Consider `CN(C)C1(C(=O)N[C@@H](CCCCCC(=O)c2ccon2)c2ncc(-c3ccccc3F)[nH]2)CC1` [Example 62], for which the IC50 in experiment [1] is more than 900 nM. The EC50 in experiment [2] (setting [3]) was 50 nM; in experiment [2] (setting [4]), 100 nM.
Taken in the same sequence, the figures for `CN(C)CC(=O)N[C@@H](CCCCCC(=O)c1ncco1)c1[nH]c(-c2ccc(F)cc2)nc1Cl` [Example 90] were 26000 nM, 14 nM and 34 nM.
As for `N[C@@H](CCCCCC(=O)c1ccon1)c1ccn(-c2ccc(F)cc2)n1` [Example 120, (7S)-7-amino-7-[1-(4-fluorophenyl)-1H-pyrazol-3-yl]-1-isoxazol-3-ylheptan-1-one], in experiment [1], half-maximal inhibition (IC50) was put at 45000 nM.
Same read-out and setting: next, `NC(CCCCCC(=O)c1ccon1)c1cnn(-c2ccc(F)cc2)n1` (centres unmarked) [Example 123, 7-amino-7-[2-(4-fluorophenyl)-2H-1,2,3-triazol-4-yl]-1-isoxazol-3-ylheptan-1-one]: 45000 nM.
In the case of `Cn1cc2cc(-c3cc([C@@H](N)CCCCCC(=O)c4ccon4)no3)ccc2n1` [Example 126, (7S)-7-amino-1-isoxazol-3-yl-7-[5-(2-methyl-2H-indazol-5-yl)isoxazol-3-yl]heptan-1-one], in experiment [1], the IC50 was more than 900 nM. The EC50 in experiment [2] (setting [3]) was 170 nM; in experiment [2] (setting [4]) it was 250 nM.
In the same order, the values of `N[C@@H](CCCCCC(=O)c1ncco1)c1ncc(-c2cc(OC3CCC3)ccc2F)[nH]1` [Example 130, (7S)-7-amino-7-{5-[5-(cyclobutyloxy)-2-fluorophenyl]-1H-imidazol-2-yl}-1-(1,3-oxazol-2-yl)heptan-1-one] are more than 900 nM, 1600 nM and 4600 nM.
In the case of `N#Cc1cnc(-c2cnc([C@@H](N)CCCCCC(=O)c3ncco3)[nH]2)cn1` [Example 132, 5-{2-[(1S)-1-amino-7-(1,3-oxazol-2-yl)-7-oxoheptyl]-1H-imidazol-5-yl}pyrazine-2-carbonitrile], the EC50 in experiment [2] (setting [3]) worked out at 25000 nM; in experiment [2] (setting [4]), 30000 nM.
In the same order, the values of `N#Cc1cncc(-c2cnc([C@@H](N)CCCCCC(=O)c3ncco3)[nH]2)n1` [Example 133, 6-{2-[(1S)-1-amino-7-(1,3-oxazol-2-yl)-7-oxoheptyl]-1H-imidazol-5-yl}pyrazine-2-carbonitrile] are 23000 nM and 25000 nM.
As to `N[C@@H](CCCCCC(=O)c1ncco1)c1ncc(-c2cc(OC(F)(F)F)ccc2F)[nH]1` [Example 142, (7S)-7-amino-7-{5-[2-fluoro-5-(trifluoromethoxy)phenyl]-1H-imidazol-2-yl}-1-(1,3-oxazol-2-yl)heptan-1-one], in experiment [1], the IC50 was more than 900 nM. The concentration giving a half-maximal response (EC50) in experiment [2] (setting [3]) stood at 1200 nM; in experiment [2] (setting [4]) it was 270 nM.
`COCC(=O)N[C@@H](CCCCCC(=O)c1ncco1)c1ncc(-c2cc3ccccc3nc2OC)[nH]1` [Example 147, 2-methoxy-N-[(1S)-1-[5-(2-methoxyquinolin-3-yl)-1H-imidazol-2-yl]-7-(1,3-oxazol-2-yl)-7-oxoheptyl]acetamide]: half-maximal inhibition in experiment [1] (IC50) required 15000 nM. In addition, the values for the EC50 in experiment [2] (setting [3]) and in experiment [2] (setting [4]) were 50 nM and 490 nM, respectively.
`COc1nc2ccccc2cc1-c1cnc([C@H](CCCCCC(=O)c2ncco2)NC(=O)C(C)(F)F)[nH]1` [Example 148, 2,2-difluoro-N-[(1S)-1-[5-(2-methoxyquinolin-3-yl)-1H-imidazol-2-yl]-7-(1,3-oxazol-2-yl)-7-oxoheptyl]propanamide] showed an IC50 in experiment [1] of 3400 nM. Also, the results for the EC50 in experiment [2] (setting [3]) and in experiment [2] (setting [4]) were 54 nM and 450 nM, respectively.
Take `CCN1CCC2(CC1)C[C@@H]2C(=O)N[C@@H](CCCCCC(=O)c1ccon1)c1cc(-c2ccccc2F)on1` [Example 175, (1S)-6-ethyl-N-{(1S)-1-[5-(2-fluorophenyl)isoxazol-3-yl]-7-isoxazol-3-yl-7-oxoheptyl}-6-azaspiro[2.5]octane-1-carboxamide]: the EC50 in experiment [2] (setting [3]) was found to be 13 nM; in experiment [2] (setting [4]) it was 19 nM.
Consider `CCN1CCC2(CC1)C[C@@H]2C(=O)N[C@@H](CCCCCC(=O)c1ccon1)c1cc(-c2ccc3nn(C)cc3c2)on1` [Example 176, (1S)-6-ethyl-N-{(1S)-7-isoxazol-3-yl-1-[5-(2-methyl-2H-indazol-5-yl)isoxazol-3-yl]-7-oxoheptyl}-6-azaspiro[2.5]octane-1-carboxamide], for which the results for the EC50 in experiment [2] (setting [3]) and in experiment [2] (setting [4]) were 14 nM and 13 nM, respectively.
Take `CN1CCC2(CC1)CC(C(=O)N[C@@H](CCCCCC(=O)c1ccon1)c1cc(-c3ccc4nn(C)cc4c3)on1)=NO2` [Example 177, N-{(1S)-7-isoxazol-3-yl-1-[5-(2-methyl-2H-indazol-5-yl)isoxazol-3-yl]-7-oxoheptyl}-8-methyl-1-oxa-2,8-diazaspiro[4.5]dec-2-ene-3-carboxamide]: the concentration giving a half-maximal response (EC50) in experiment [2] (setting [3]) came to 33 nM; in experiment [2] (setting [4]), 55 nM.

Values taken from US12331044B2, “Inhibitors of histone deacetylase useful for the treatment or prevention of HIV infection” (Merck Sharp & Dohme LLC, priority 2018, dated 2025).
